Literature values, collected in US7402581B2, “Azetidine compounds” (Albireo AB, priority 2003, dated 2008).

Target: T1, Human Neurokinin-2 (NK2) Receptor (Homo sapiens, UniProt P21452)
T1 sequence (P21452 1-398): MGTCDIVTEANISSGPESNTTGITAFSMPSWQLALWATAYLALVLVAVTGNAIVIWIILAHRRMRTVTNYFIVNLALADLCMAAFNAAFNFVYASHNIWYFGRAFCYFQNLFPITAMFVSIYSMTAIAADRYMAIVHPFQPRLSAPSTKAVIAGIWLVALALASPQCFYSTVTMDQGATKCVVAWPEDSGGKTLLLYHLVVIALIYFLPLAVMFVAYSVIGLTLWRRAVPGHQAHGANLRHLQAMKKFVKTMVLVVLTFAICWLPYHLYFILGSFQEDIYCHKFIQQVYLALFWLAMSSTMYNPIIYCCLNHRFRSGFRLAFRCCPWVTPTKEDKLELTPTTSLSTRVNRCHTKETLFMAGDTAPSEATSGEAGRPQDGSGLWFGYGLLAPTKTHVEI
Details: reported in Bioorganic & Medicinal Chemistry Letters 2003

For `CN(CC(CCN1CC(N2CCOCC2)C1)c1ccc(Cl)c(Cl)c1)C(=O)c1ccccc1` (stereo not shown) [N-[2-(3,4-dichlorophenyl)-4-(3-morpholin-4-ylazetidin-1-yl)butyl]-N-methylbenzamide], the “functional NK2 receptor antagonistic properties” value is listed as “functional NK2 receptor antagonistic properties”.
